Read-outs that look alike come from different tables or passages of the source.
Legend:
[1] = test system: JAK2, TYK2/p-STAT4 (Tyr693) activated by IL-12 in NK-92 cell line; assay: IL-12-JAK2, TYK2/p-STAT4 (Tyr693) inhibition IC50 cellular assay; assay type: cell-based; conditions: for IC50: read-out: pSTAT4/IL-12 IC50; for Selectivity fold (TYK2/JAK2): pSTAT5/GM-CSF IC50 vs pSTAT4/IL-12 IC50
Text: Assay C: IL-12-JAK2, TYK2/p-STAT4 (Tyr693) Inhibition IC50 Cellular Assay
To evaluate the inhibition effect of compounds disclosed herein on JAK2, TYK2/p-STAT4 (Tyr693) activated by IL-12 in NK-92 cell line, NK-92 cells were collected and washed 3 times by DPBS and resuspended in MEM-α (GIBCO, Cat #12561056) with 10% FBS (Gibco, Cat #10099, Lot #1891605), without IL-2 (R&D systems, Cat #202-IL), starved overnight. Cells were collected and resuspended in 1640 medium (phenol red free, Gibco, Cat #11835-030) with 0.1% BSA, and 12.5 μl/5×10^4/well cell suspension were seeded to the 96-well plate (Corning, Cat #3799). Then cells were treated with compounds diluted in 0.2% DMSO 1640 medium, at 37° C., 1 h. Dilution is done according to the following protocol: (1) make 500× compounds solution in DMSO from 5 mM by 4-fold dilution, total 8 doses were included; (3) make 2× compounds solution in assay medium by transferring 0.5 μl serial 500× stock solution into 125 μl assay medium; (4) 15 μl of 2× serial solution is added to cells and incubate at 37° C. for 1 h, the final compound conc. is 10000, 2500, 625, 156.25, 39, 9.8, 2.4 and 0.61 nM, respectively. After 1 h, cells were treated with 2.5 μl medium containing IL-12 at 37° C. (R&D systems, Cat #219-IL-005, final conc. 40 ng/ml), 30 min. Following cells were lysed with 7.5 μl lysis buffer at RT, shaking on shaker for 1 h. 10 μL of cell lysate were transferred to a PE 384-well Proxiplate detection plate, and 5 μL of pre-mixed Alphascreen beads were added to each well. Covered the plate with a plate sealer, span 1000 rpm for 1 min, mix, Incubated overnight at room temperature. Read on BMG PheraStar with Alphascreen protocol. IC 50 values were calculated by fitting dependent data to the four-parameter logistic model using dotmatics software. The assay was performed by using AlphaLISA SureFire Ultra p-STAT4 (Tyr693) Assay Kit—High Volume (PE, Cat #ALSU-PST4-A-HV).

pSTAT5/GM-CSF = pSTAT5/GM-CSF cellular assay (JAK2 selectivity); assay type: cell-based; conditions: for Selectivity fold (TYK2/JAK2): pSTAT5/GM-CSF IC50 over pSTAT4/IL-12 IC50
[2] = target: T1, TYK2-JH2 (aa 575-869, in-house) protein (Homo sapiens, UniProt P29597); assay: TYK2-JH2 biochemical assay (HTRF probe displacement); assay type: binding; conditions: Biochemical assay; read-out: TYK2-JH2 IC50
T1 construct: TYK2-JH2 (aa 575-869, in-house) protein; made in house
Method: Assay A: TYK2-JH2 Biochemical Assay
Compounds disclosed herein were tested for blocking of TYK2-JH2 (aa 575-869, in-house) protein with its probe in an assay based on Homogeneous Time Resolved Fluorescence. Compound dilution is done according to the following protocol: (1) Prepare 500× compounds solution in DMSO from 500 uM by 5-fold dilution, total 10 doses were included; (2) Prepare 10× compounds solution in an assay buffer containing 20 mM HEPES, pH 7.5, 10 mM MgCl2, 0.005% BSA, 2 mM DTT, 0.015% Brij-35 by transferring 1 μl serial 500× stock solution into 49 μl assay buffer. […] of 0.2 nM recombinant TYK2-JH2 protein was pre-incubated with 1 μl of 10× serial dilution of compounds at room temperature for 0.5 hour. […] The HTRF signals (ex337 nm, em620 nm/665 nm) were read on BMG PHERAstar FS instrument. The inhibition percentage of TYK2 interaction with its probe in presence of increasing concentrations of compounds was calculated based on the ratio of fluorescence at 615 nm to that at 665 nm. The IC50 for each compound was derived from fitting the data to the four-parameter logistic equation by Dotmatics.

T1 sequence (P29597 575-869): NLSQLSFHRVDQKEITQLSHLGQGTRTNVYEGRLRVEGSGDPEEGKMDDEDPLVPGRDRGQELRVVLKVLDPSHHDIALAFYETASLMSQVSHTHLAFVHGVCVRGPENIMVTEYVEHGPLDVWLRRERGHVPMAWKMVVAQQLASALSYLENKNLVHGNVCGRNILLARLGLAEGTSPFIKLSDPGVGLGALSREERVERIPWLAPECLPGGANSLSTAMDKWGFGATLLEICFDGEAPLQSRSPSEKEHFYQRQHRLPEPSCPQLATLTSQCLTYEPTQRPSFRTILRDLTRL

| IC50 ([1]; NK92, Cellular assay) [nM] | IC50 (pSTAT5/GM-CSF) [nM] | IC50 [2] [nM] | IC50 ([1]; Cellular assay) [nM] | SMILES | Selectivity fold (TYK2/JAK2) (pSTAT5/GM-CSF) [fold] | Selectivity fold (TYK2/JAK2) ([1]; Cellular assay) [fold] |
| --- | --- | --- | --- | --- | --- | --- |
| 1.95 | > 10000 | 0.022 | – | CCS(=O)(=O)c1cc(OC(C)C)cc(Nc2cc(NC(C)=O)ncc2-c2ccc(C(C)(C)O)cn2)n1 [Example H36, N-(4′-((6-(ethylsulfonyl)-4-isopropoxypyridin-2-yl)amino)-5-(2-hydroxypropan-2-yl)-[2,3′-bipyridin]-6′-yl)acetamide] | – | >5128 |
| 1.45 | > 10000 | 0.031 | – | COc1cc(Nc2cc(NC(C)=O)ncc2-c2ccc(C(F)(F)F)cn2)nc(S(C)(=O)=O)c1 [Example F20, N-(4′-((4-methoxy-6-(methylsulfonyl)pyridin-2-yl)amino)-5-(trifluoromethyl)-[2,3′-bipyridin]-6′-yl)acetamide] | – | >6896 |
| 0.645 | > 10000 | 0.035 | – | COCc1ccc(-c2cnc(NC(C)=O)cc2Nc2cc(OC[C@@H](C)OC)cc(S(C)(=O)=O)n2)nc1 [Example E3, (R)-N-(5-(methoxymethyl)-4′-((4-(2-methoxypropoxy)-6-(methylsulfonyl)pyridin-2-yl)amino)-[2,3′-bipyridin]-6′-yl)acetamide] | – | >15503 |
| – | – | 0.033 | – | CC(=O)Nc1cc(Nc2cc(OCC3COCCO3)cc(S(C)(=O)=O)n2)c(-c2ccc3c(n2)OC(C)(C)CO3)cn1 (stereo not shown) [Example Q27, N-(4-((4-((1,4-dioxan-2-yl)methoxy)-6-(methylsulfonyl)pyridin-2-yl)amino)-5-(3,3-dimethyl-2,3-dihydro-[1,4]dioxino[2,3-b]pyridin-6-yl)pyridin-2-yl)acetamide] | – | – |
| – | – | 0.04 | – | CCOc1cc(Nc2cc(NC(C)=O)ncc2-c2ccc(C(F)(F)F)cn2)nc(S(C)(=O)=O)c1 [Example F10, N-(4′-((4-ethoxy-6-(methylsulfonyl)pyridin-2-yl)amino)-5-(trifluoromethyl)-[2,3′-bipyridin]-6′-yl)acetamide] | – | – |
| 3000 | – | 2.4 | – | CC(=O)Nc1cc(Nc2cccc(S(C)(=O)=O)c2)c(-c2ncn(C)n2)cn1 [Example A10, N-(5-(1-methyl-1H-1,2,4-triazol-3-yl)-4-((3-(methylsulfonyl)phenyl)amino)pyridin-2-yl)acetamide] | – | – |
| – | – | 0.099 | – | CCn1ccc(-c2cnc(NC(C)=O)cc2Nc2cc(C#N)cc(S(C)(=O)=O)c2)n1 [Example M10, N-(4-((3-cyano-5-(methylsulfonyl)phenyl)amino)-5-(1-ethyl-1H-pyrazol-3-yl)pyridin-2-yl)acetamide] | – | – |

The remaining lines, values behind:

| SMILES | IC50 ([1]; NK92, Cellular assay) [nM] | IC50 (pSTAT5/GM-CSF) [nM] | IC50 [2] [nM] | IC50 ([1]; Cellular assay) [nM] | Selectivity fold (TYK2/JAK2) (pSTAT5/GM-CSF) [fold] | Selectivity fold (TYK2/JAK2) ([1]; Cellular assay) [fold] |
| --- | --- | --- | --- | --- | --- | --- |
| CC(=O)Nc1cc(Nc2cc(C)cc(S(C)(=O)=O)n2)c(-c2cc3n(n2)CCOC3)cn1 [Example Q20, N-(5-(6,7-dihydro-4H-pyrazolo[5,1-c][1,4]oxazin-2-yl)-4-((4-methyl-6-(methylsulfonyl)pyridin-2-yl)amino)pyridin-2-yl)acetamide] | 0.16 | 1770 | 0.022 | – | 11043 | – |
| CC(=O)Nc1cc(Nc2cc(OC(C)C)cc(S(C)(=O)=O)n2)c(-c2ccc3c(n2)OCCO3)cn1 [Example Q1, N-(5-(2,3-dihydro-[1,4]dioxino[2,3-b]pyridin-6-yl)-4-((4-isopropoxy-6-(methylsulfonyl)pyridine-2-yl)amino)pyridin-2-yl)acetamide] | 1.76 | > 10000 | 0.023 | – | >5681 | – |
| CC(=O)Nc1cc(Nc2cc(C3COCCO3)cc(S(C)(=O)=O)n2)c(-c2ccc3c(n2)OCC(C)(C)O3)cn1 (racemic) [Example Q51, (S/R)—N-(4-((4-(1,4-dioxan-2-yl)-6-(methylsulfonyl)pyridin-2-yl)amino)-5-(2,2-dimethyl-2,3-dihydro-[1,4]dioxino[2,3-b]pyridin-6-yl)pyridin-2-yl)acetamide] | – | > 10000 | 0.034 | 0.979 | >10214 | – |
| COc1ccc(S(C)(=O)=O)nc1Nc1cc(NC(C)=O)ncc1-c1cnn(C)c1 [Example A11, N-(4-((3-methoxy-6-(methylsulfonyl)pyridin-2-yl)amino)-5-(1-methyl-1H-pyrazol-4-yl)pyridin-2-yl)acetamide] | 41.7 | > 10000 | 0.063 | – | – | >239 |
| CC(=O)Nc1cc(Nc2cc(OC3COC3)cc(S(C)(=O)=O)n2)c(-c2ccc(C(C)(C)O)cn2)cn1 [Example H27, N-(5-(2-hydroxypropan-2-yl)-4′-((6-(methylsulfonyl)-4-(oxetan-3-yloxy)pyridin-2-yl)amino)-[2,3′-bipyridin]-6′-yl)acetamide] | 2.72 | > 10000 | 0.031 | – | – | >3676 |
| COCCOc1cc(Nc2cc(NC(C)=O)ncc2-c2ccc(C(F)(F)F)cn2)nc(S(C)(=O)=O)c1 [Example F11, N-(4′-((4-(2-methoxyethoxy)-6-(methylsulfonyl)pyridin-2-yl)amino)-5-(trifluoromethyl)-[2,3′-bipyridin]-6′-yl)acetamidecarboxamide] | 0.705 | > 10000 | 0.037 | – | – | >14184 |
| COCCOc1cc(Nc2cc(NC(C)=O)ncc2-c2ccn(C3CC3)n2)nc(S(C)(=O)=O)c1 [Example M4, N-(5-(1-cyclopropyl-1H-pyrazol-3-yl)-4-((4-(2-methoxyethoxy)-6-(methylsulfonyl)pyridin-2-yl)amino)pyridin-2-yl)acetamide] | 0.681 | > 10000 | 0.026 | – | >14684 | – |
| CCn1ccc(-c2cnc(NC(C)=O)cc2Nc2cc(OC3CCCC3)cc(S(C)(=O)=O)n2)n1 [Example M17, N-(4-((4-(cyclopentyloxy)-6-(methylsulfonyl)pyridin-2-yl)amino)-5-(1-ethyl-1H-pyrazol-3-yl)pyridin-2-yl)acetamide] | 1.09 | > 10000 | 0.041 | – | >9174 | – |
| CC(=O)Nc1cc(Nc2cc(OCC3CC3)cc(S(C)(=O)=O)c2)c(-c2ccc(C(F)(F)F)cn2)cn1 [Example F6, N-(4′-((3-(cyclopropylmethoxy)-5-(methylsulfonyl)phenyl)amino)-5-(trifluoromethyl)-[2,3′-bipyridin]-6′-yl)acetamide] | – | – | 0.532 | – | – | – |
| CC(=O)Nc1cc(Nc2cc(O[C@H]3C[C@H](O)C3)cc(S(C)(=O)=O)c2)c(-c2ccc(F)cn2)cn1 [Example F15, N-(5-fluoro-4′-((3-((trans)-3-hydroxycyclobutoxy)-5-(methylsulfonyl)phenyl)amino)-[2,3′-bipyridin]-6′-yl)acetamide] | – | – | 0.073 | – | – | – |
| COC(C)c1cc(Nc2cc(NC(C)=O)ncc2-c2ccc(N3C[C@@H](C)O[C@@H](C)C3)cn2)nc(S(C)(=O)=O)c1 (single isomer, unassigned) [Example C19, N-(5-((cis)-2,6-dimethylmorpholino)-4′-((4-((R or S)-1-methoxyethyl)-6-(methylsulfonyl)pyridin-2-yl)amino)-[2,3′-bipyridin]-6′-yl)acetamide] | – | – | 0.023 | – | – | – |
